Where only a bound is given, the exact number is not on record here.

For this assay, the target named is T1, ALK2 (Homo sapiens, UniProt Q04771).
T1 construct: purchased ThermoFisher Scientific (Life Technologies)
T1 sequence (Q04771 21-509): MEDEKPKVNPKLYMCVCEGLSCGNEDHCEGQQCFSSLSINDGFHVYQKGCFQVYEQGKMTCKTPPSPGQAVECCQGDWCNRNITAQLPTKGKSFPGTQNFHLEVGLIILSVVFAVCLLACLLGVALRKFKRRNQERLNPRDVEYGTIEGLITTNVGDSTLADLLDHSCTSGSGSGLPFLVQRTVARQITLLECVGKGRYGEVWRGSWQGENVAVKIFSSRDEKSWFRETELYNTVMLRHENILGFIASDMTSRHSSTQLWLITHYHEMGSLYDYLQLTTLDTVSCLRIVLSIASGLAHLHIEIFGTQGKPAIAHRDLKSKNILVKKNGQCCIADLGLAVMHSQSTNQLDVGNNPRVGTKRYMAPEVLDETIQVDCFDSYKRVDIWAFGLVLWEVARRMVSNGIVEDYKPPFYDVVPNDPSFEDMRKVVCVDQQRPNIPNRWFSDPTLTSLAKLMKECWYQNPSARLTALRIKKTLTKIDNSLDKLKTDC
In words: LanthaScreen Eu Kinase Binding Assay, ALK2 inhibition. The note with it: 1 micromolar concentration. The procedure: Biochemical assays to measure the inhibitory effects of the compounds were performed by ThermoFisher Scientific (Life Technologies). ALK2 inhibition was tested using LanthaScreen™ Eu Kinase Binding Assay screening protocol.

`COc1cc(-n2cnc(Nc3nc(C4CC(OCc5ccccc5)C4)nc4c3cnn4C(C)C)c2)cc(OC)c1OC` (stereo not drawn) [Compound 57e, 6-(3-(benzyloxy)cyclobutyl)-1-isopropyl-N-(1-(3,4,5-trimethoxyphenyl)-1H-imidazol-4-yl)-1H-pyrazolo[3,4-d]pyrimidin-4-amine]: the inhibition (as a rule, how much of the control response was suppressed) at 1 µM was over 50%. Under `COc1cc(-n2cnc(Nc3nc(C4CC(O)C4)nc4c3cnn4C(C)C)c2)cc(OC)c1OC` (stereo not drawn) [Compound 58a, 3-(1-isopropyl-4-((1-(3,4,5-trimethoxyphenyl)-1H-imidazol-4-yl)amino)-1H-pyrazolo[3,4-d]pyrimidin-6-yl)cyclobutanol] stands over 50%; under `CCCCCC(C)c1nc(Nc2cn(-c3cc(OC)c(OC)c(OC)c3)cn2)c2cnn(C(C)C)c2n1` (stereo not drawn) [Compound 59e, 6-(heptan-2-yl)-1-isopropyl-N-(1-(3,4,5-trimethoxyphenyl)-1H-imidazol-4-yl)-1H-pyrazolo[3,4-d]pyrimidin-4-amine], over 50%; under `C=C(C)c1nc2c(c(Nc3cn(-c4cc(OC)c(OC)c(OC)c4)cn3)n1)CCC2` [Compound 60c, 2-(prop-1-en-2-yl)-N-(1-(3,4,5-trimethoxyphenyl)-1H-imidazol-4-yl)-6,7-dihydro-5H-cyclopenta[d]pyrimidin-4-amine], over 50%. Under `C=C(C)c1nc(Nc2cn(-c3cc(OC)c(OC)c(OC)c3)cn2)c2cccn2n1` [Compound 61c, 2-(prop-1-en-2-yl)-N-(1-(3,4,5-trimethoxyphenyl)-1H-imidazol-4-yl)pyrrolo[2,1-f][1,2,4]triazin-4-amine] stands over 50%. Under `C=C(C)c1nc(Nc2cn(-c3cc(OC)c(OC)c(OC)c3)cn2)c2ncsc2n1` [Compound 63c, 5-(prop-1-en-2-yl)-N-(1-(3,4,5-trimethoxyphenyl)-1H-imidazol-4-yl)thiazolo[5,4-d]pyrimidin-7-amine] stands over 50%; under `C=C(C)c1nc(Nc2cn(-c3cc(OC)c(OC)c(OC)c3)cn2)c2ccc(OC)cc2n1` [Compound 64c, 7-methoxy-2-(prop-1-en-2-yl)-N-(1-(3,4,5-trimethoxyphenyl)-1H-imidazol-4-yl)quinazolin-4-amine], over 50%. For `C=C(C)c1nc(Nc2cn(-c3cc(OC)c(OC)c(OC)c3)cn2)c2cc(OC)c(OC)cc2n1` [Compound 65c, 6,7-dimethoxy-2-(prop-1-en-2-yl)-N-(1-(3,4,5-trimethoxyphenyl)-1H-imidazol-4-yl)quinazolin-4-amine], the inhibition at 1 µM is under 50%.

Compound `COc1cc(-n2cnc(Nc3nc(C(C)C)nn4cccc34)c2)cc(OC)c1OC` [Compound 67a, 2-isopropyl-N-(1-(3,4,5-trimethoxyphenyl)-1H-imidazol-4-yl)pyrrolo[2,1-f][1,2,4]triazin-4-amine] returned an inhibition at 1 µM of over 50%.

Turning to `C=C(C)c1nc(Nc2cn(-c3cc(OC)c(OC)c(OC)c3)cn2)nc2cc(OC)c(OC)cc12` [Compound 68b, 6,7-dimethoxy-4-(prop-1-en-2-yl)-N-(1-(3,4,5-trimethoxyphenyl)-1H-imidazol-4-yl)quinazolin-2-amine], the inhibition at 1 µM was over 50%.

Take `COc1cc(-n2cnc(Nc3nc(C(C)C)nc4c3OCC4)c2)cc(OC)c1OC` [Compound 69a, 2-isopropyl-N-(1-(3,4,5-trimethoxyphenyl)-1H-imidazol-4-yl)-6,7-dihydrofuro[3,2-d]pyrimidin-4-amine]: the inhibition at 1 µM was over 50%.

`C=C(C)c1nc(Nc2cn(-c3cc(OC)c(OC)c(OC)c3)cn2)c2ccccc2n1` [Compound 70b, 2-(prop-1-en-2-yl)-N-(1-(3,4,5-trimethoxyphenyl)-1H-imidazol-4-yl)quinazolin-4-amine] had an inhibition at 1 µM of over 50%. Regarding `C=C(C)c1nc2c(c(Nc3cn(-c4cc(OC)c(OC)c(OC)c4)cn3)n1)COC2` [Compound 71c, 2-(prop-1-en-2-yl)-N-(1-(3,4,5-trimethoxyphenyl)-1H-imidazol-4-yl)-5,7-dihydrofuro[3,4-d]pyrimidin-4-amine], the inhibition at 1 µM is over 50%. Under `COc1cc(-n2cnc(Nc3nc(C(C)C)nc4c3COC4)c2)cc(OC)c1OC` [Compound 72a, 2-isopropyl-N-(1-(3,4,5-trimethoxyphenyl)-1H-imidazol-4-yl)-5,7-dihydrofuro[3,4-d]pyrimidin-4-amine] stands over 50%; under `COc1cc(-n2cnc(Nc3nc(C(C)C)nc4ccccc34)c2)cc(OC)c1OC` [Compound 73a, 2-isopropyl-N-(1-(3,4,5-trimethoxyphenyl)-1H-imidazol-4-yl)quinazolin-4-amine], over 50%; under `C=C(C)c1nc(Nc2cn(-c3cc(OC)c(OC)c(OC)c3)cn2)c2ncn(C(C)C)c2n1` [Compound 74c, 9-isopropyl-2-(prop-1-en-2-yl)-N-(1-(3,4,5-trimethoxyphenyl)-1H-imidazol-4-yl)-9H-purin-6-amine], over 50%. Under `COc1ccc2c(Nc3cn(-c4cc(OC)c(OC)c(OC)c4)cn3)nc(C(C)C)nc2c1` [Compound 75a, 2-isopropyl-7-methoxy-N-(1-(3,4,5-trimethoxyphenyl)-1H-imidazol-4-yl)quinazolin-4-amine] stands over 50%; under `C=C(C)c1nc2c(c(Nc3cn(-c4cc(OC)c(OC)c(OC)c4)cn3)n1)CCN(C(=O)OC(C)(C)C)C2` [Compound 76c, tert-butyl 2-(prop-1-en-2-yl)-4-((1-(3,4,5-trimethoxyphenyl)-1H-imidazol-4-yl)amino)-5,6-dihydropyrido[3,4-d]pyrimidine-7 (8H)-carboxylate], under 50%; under `COc1cc(-n2cnc(Nc3nc(C(C)C)nc4c3CCN(C(=O)OC(C)(C)C)C4)c2)cc(OC)c1OC` [Compound 77a, tert-butyl 2-isopropyl-4-((1-(3,4,5-trimethoxyphenyl)-1H-imidazol-4-yl)amino)-5,6-dihydropyrido[3,4-d]pyrimidine-7 (8H)-carboxylate], over 50%. Next, `C=C(C)c1nc(Nc2cn(-c3cc(OC)c(OC)c(OC)c3)cn2)c2ncccc2n1` [Compound 78c, 2-(prop-1-en-2-yl)-N-(1-(3,4,5-trimethoxyphenyl)-1H-imidazol-4-yl)pyrido[3,2-d]pyrimidin-4-amine]: over 50%. As to `COc1cc2nc(C(C)C)nc(Nc3cn(-c4cc(OC)c(OC)c(OC)c4)cn3)c2cc1OC` [Compound 79a, 2-isopropyl-6,7-dimethoxy-N-(1-(3,4,5-trimethoxyphenyl)-1H-imidazol-4-yl)quinazolin-4-amine], the inhibition at 1 µM is under 50%. Next, `C=C(C)c1nc(Nc2cn(-c3cc(OC)c(OC)c(OC)c3)cn2)c2ccsc2n1` [Compound 80c, 2-(prop-1-en-2-yl)-N-(1-(3,4,5-trimethoxyphenyl)-1H-imidazol-4-yl)thieno[2,3-d]pyrimidin-4-amine]: over 50%. Under `COc1cc(-n2cnc(Nc3nc(C(C)C)nc4sccc34)c2)cc(OC)c1OC` [Compound 81a, 2-isopropyl-N-(1-(3,4,5-trimethoxyphenyl)-1H-imidazol-4-yl)thieno[2,3-d]pyrimidin-4-amine] stands over 50%.

In turn, `C=C(C)c1nc(Nc2cn(-c3cc(OC)c(OC)c(OC)c3)cn2)c2cccnc2n1` [Compound 82c, 2-(prop-1-en-2-yl)-N-(1-(3,4,5-trimethoxyphenyl)-1H-imidazol-4-yl)pyrido[2,3-d]pyrimidin-4-amine] came in with an inhibition at 1 µM of over 50%.

Values taken from patent US20240270750A1, “IMIDAZOLE-CONTAINING INHIBITORS OF ALK2 KINASE” (BioCryst Pharmaceuticals, Inc., priority 2021, published 2024).
